In one data set the test system is P. falciparum 3D7-GFP. Nature of the data set: Screening at fixed concentration against unsynchronized asexual blood stages, flow cytometry (GFP). It counts as cell-based. The settings on record: Plasmodium falciparum, read-out: Inhibition (%) 10 μΜ. On the procedure: In order to assess the antiplasmodial activity of the compounds, a screening with fixed concentrations at 10 μM was performed against unsynchronized cultures of the asexual blood stages of P. falciparum 3D7HT-GFP (hereafter referred to as 3D7-GFP). […] The JR intermediates were also evaluated in this assay in order to assess the relevance of the spiroacridine scaffold.
(§1) Firstly, to prepare the samples for in vitro assays, each compound was dissolved in DMSO (Sigma-Aldrich®, Merck, Darmstadt, Germany), obtaining a solution of 5 mM, from which two other solutions, at 100 μM and 10 μΜ were prepared through dilution with RPMI-1640 medium (Invitrogen™, Carlsbad, CA, USA), supplemented with AlbuMAXII (Invitrogen™, Carlsbad, CA, USA). In parallel, the parasite cultures used in the in vitro assays include the following P. falciparum strains: 3D7-GFP (MRA-1029, MR4, ATCC®, Manassas, VA, USA, chloroquine-sensitive, expressing Green Fluorescent Protein), Dd2 (MRA-150, ATCC®, Manassas, Virgínia, chloroquine-resistant), and IPC5202 (MRA-1240, ATCC®, Manassas, VA, USA, artemisinin-resistant). These cultures were obtained through BEI Resources, NIAID, NIH (MR4, ATCC®, Manassas, VA, USA), contributed by Andrew M. Talman, Robert E. Sinden, David Walliker, and Didier Ménard. The parasites were cultivated with 5% hematocrit at 37 °C and an atmosphere enriched with 5% of CO2 [54].
Then, to assess the antiplasmodial activity of the compounds, a screening assay was initially performed against the P. falciparum 3D7-GFP strain. For this, unsynchronized cultures were incubated in a 96-well flat-bottom plate at 1.2% hematocrit and 1.0% parasitemia, in the presence and absence of 1 μM and 10 μM of each compound, for 72 h at 37 °C and 5% CO2. […] Parasite growth was determined by flow cytometry (CytoFLEX, Beckman Coulter Life Sciences, Indianapolis, IN, USA) with a 96-well plate reader, using Fl-1 with an excitation wavelength of 488 nm for GFP detection. The flow cytometry data were analyzed with FlowJo v10 software (FlowJo LLC, Ashland, OR, USA) to calculate the percentage inhibition of compounds.
On the technique in general: In flow cytometry, cells or beads pass a laser one at a time.

Data set [1] deals with P. falciparum Dd2 (chloroquine-resistant). Briefly: microbe, parasite or virus in culture. It counts as cell-based. The note with it: Plasmodium falciparum, DD2, 72 h, read-out: IC50 (μM) Dd2. On the procedure:
as §1, with “In parallel, the parasite cultures used in the in vitro assays include the following P. falciparum strains: 3D7-GFP (MRA-1029, MR4, ATCC®, Manassas, VA, USA, chloroquine-sensitive, expressing Green Fluorescent Protein), Dd2 (MRA-150, ATCC®, Manassas, Virgínia, chloroquine-resistant), and IPC5202 (MRA-1240, ATCC®, Manassas, VA, USA, artemisinin-resistant).” left out
(§2) In order to accomplish this, unsynchronized cultures of 3D7-GFP, Dd2, and MRA-1240 were incubated at 1.2% hematocrit and 1.0% parasitemia with serial three-fold dilutions of the compounds, ranging from 10,000 nM to 0.17 nM, in 96-well flat-bottom plates for 72 h at 37 °C and 5% CO2. Parasite growth was quantified by flow cytometry (CytoFLEX, Beckman Coulter Life Sciences, Indianapolis, IN, USA) using GFP detection in a 96-well plate reader (Fl-1 channel) for the 3D7-GFP strain. The others (Dd2 and MRA-1240) were stained with SYBR Green I (20×), which is also detected at 488 nm. Data analysis was performed with FlowJo v10 software (FlowJo LLC, Ashland, OR, USA), and the half-maximal inhibitory concentrations (IC50) were calculated using GraphPad Prism 5 (trial version), with mean IC50 values obtained from at least two independent experiments, each conducted in triplicate.
(§3) All statistical analyses and graphical representations were performed using the GraphPad Prism 8.0 software package. Dose–response curves were generated by fitting the data to a nonlinear regression model [log(inhibitor) vs. response—variable slope]. […] The IC50 values were obtained from the fitted curves. Each experiment was carried out in triplicate and repeated independently, and results were expressed as mean ± standard deviation.

For data set [2], the system named is P. falciparum MRA-1240 (artemisinin-resistant). Briefly: microbe, parasite or virus in culture. It counts as cell-based. The note with it: Plasmodium falciparum, 72 h, read-out: IC50 (μM) MRA-1240. On the procedure:
as §1, with “In parallel, the parasite cultures used in the in vitro assays include the following P. falciparum strains: 3D7-GFP (MRA-1029, MR4, ATCC®, Manassas, VA, USA, chloroquine-sensitive, expressing Green Fluorescent Protein), Dd2 (MRA-150, ATCC®, Manassas, Virgínia, chloroquine-resistant), and IPC5202 (MRA-1240, ATCC®, Manassas, VA, USA, artemisinin-resistant).” left out
as §2, §3

Data set [3] deals with P. falciparum 3D7-GFP (chloroquine-sensitive). Nature of the data set: IC50 determination against asexual blood stages, flow cytometry (GFP). It counts as cell-based. The note with it: Plasmodium falciparum, 3D7, 72 h, read-out: IC50 (μM) 3D7-GFP. Here is the method:
as §1, with “In parallel, the parasite cultures used in the in vitro assays include the following P. falciparum strains: 3D7-GFP (MRA-1029, MR4, ATCC®, Manassas, VA, USA, chloroquine-sensitive, expressing Green Fluorescent Protein), Dd2 (MRA-150, ATCC®, Manassas, Virgínia, chloroquine-resistant), and IPC5202 (MRA-1240, ATCC®, Manassas, VA, USA, artemisinin-resistant).” left out
as §2, §3

Data set [4] concerns monkey kidney cells (Vero E6). Nature of the data set: Cytotoxicity, MTT assay. It counts as cell-based. The settings on record: for IC50: Primates, read-out: IC50 (μM) Vero E6. On the procedure:
In the following stages, to assess the selectivity of compounds against P. falciparum over mammalian cells, the cytotoxicity against monkey kidney cells (Vero E6) was determined through MTT assay after 72h of treatment. Also, the selectivity index (SI) of compounds was calculated by the ratio between a compound’s cytotoxicity against Vero E6 cells and its antiplasmodial activity (SI = Vero E6 IC50/P. falciparum IC50).
For this, monkey kidney cells (Vero E6) were seeded at a density of 5 × 10^3 cells/mL in 96-well plates and allowed to adhere for 6 h. Vero E6 cell line was obtained from the Cell Bank of Rio de Janeiro and cultured in DMEM media (Dulbecco’s Modified Eagle Medium) plus 10% inactivated fetal bovine serum (FBS) and 1% penicillin–streptomycin. Treatments were performed by adding 100 μL of medium solutions with test drugs, resulting in concentrations ranging from 12.5 to 100 µM (DMSO 1%, v/v). After 72 h of incubation at 37 °C and under 5% of CO2, the cultures were incubated with MTT at 0.5 mg/mL for 2 h. After this, the formazan crystals were dried in room temperature and dissolved in DMSO. Cell viability was determined by measuring the absorbance at 570 nm (Absorbance microplate reader EL800, BioTek, Winooski, VT, USA), and control wells containing DMSO at 1% were considered as 100% cell viability.
(Tetrazolium assays rely on reduction of a dye to a coloured formazan, in cell work by metabolically active cells.)

For another data set, the system named is P. falciparum 3D7. The settings on record: read-out: potency against P. falciparum 3D7; cited from earlier work.
The next data set relates to P. falciparum W2. Also noted: method as in PMID 30366283. The settings on record: read-out: IC50 against P. falciparum W2; cited from earlier work.
The next data set relates to mice. Also noted: method as in PMID 31861795. The note with it: acute toxicity, OECD guidelines; cited from earlier work.
In another data set the test system is erythrocytes. On the set-up: method as in PMID 40572185. The settings on record: no cytotoxicity against erythrocytes up to this concentration; cited from earlier work.
Setting [5] is: Vero C1008, 72 h, MTT, 12.5 to 100 µM.

Structures are written as SMILES. Like-named read-outs stand apart in the source and are kept apart here.

For orientation: inhibition means how much of the control response was suppressed. Take `N#CCC(=O)N/N=C/c1ccnc2ccccc12` [JR-18]: the inhibition at 10 µM with P. falciparum 3D7-GFP (3D7, 72 h) worked out at 14.7 ± 7.2%.
Still for that read-out and setting: the same measure for `COc1cc(/C=N/NC(=O)CC#N)cc(OC)c1OC` [JR-10, (E)-2-cyano-N’-(3,4,5-trimethoxybenzylidene)acetohydrazide]: 12.6 ± 1.4%.
Consider `N#CC1=CC2(c3ccccc3Nc3ccccc32)N(/N=C/c2c[nH]c3ccccc23)C1=O` [AMTAC-22, (E)-1′-(((1H-indol-3-yl)methylene)amino)-5′-oxo-1′,5′-dihydro-10H-spiro[acridine-9,2′-pyrrole]-4′-carbonitrile], for which the IC50 was 2.34 ± 0.11 µM in data set [1], 2.88 ± 0.3 µM in data set [2], 3.01 ± 0.52 µM in [3] and above 100 µM in data set [4] (setting [5]). In addition, the “reduction in cell viability” value in [4] (at all concentrations evaluated (12.5–100 μM), 72 h) is 15–20%.
Regarding `N#CC1=CC2(c3ccccc3Nc3ccccc32)N(/N=C/c2ccc(Cl)cc2)C1=O` [AMTAC-06], the inhibition at 10 µM in the data set with P. falciparum 3D7-GFP (3D7, 72 h) worked out at 62.4 ± 8.9%.
On the same count and under the same terms, the same measure for `COc1cc(/C=N/NC(=O)CC#N)cc(OC)c1O` [JR-28, (E)-2-cyano-N’-(4-hydroxy-3,5-dimethoxybenzylidene)acetohydrazide]: 5.5 ± 11.5%.
Consider `CCN(CC)CCCC(C)Nc1ccnc2cc(Cl)ccc12` (stereo not drawn) [CQ, chloroquine, reference compound], for which the IC50 in [1] was 0.26 ± 0.09 µM; in data set [2], 0.19 ± 0.07 µM; in [3], 0.02 ± 0.01 µM; in data set [4] (Vero C1008, 72 h), above 100 µM. Further, in the data set on P. falciparum 3D7-GFP (72 h), the inhibition at 10 µM was 94.34 ± 0.54%.
With `N#CC1=CC2(c3ccccc3Nc3ccccc32)N(/N=C/c2ccnc3ccccc23)C1=O` [AMTAC-21, (E)-5′-oxo-1′-((quinolin-4-ylmethylene)amino)-1′,5′-dihydro-10H-spiro[acridine-9,2′-pyrrole]-4′-carbonitrile], the IC50 in data set [1] is 3.99 ± 0.23 µM; in data set [2], 4.07 ± 0.27 µM; in data set [3] it was 3.78 ± 0.18 µM; in data set [4] (setting [5]), above 100 µM.
Consider `COc1cc(NC(C)CCCN)c2ncccc2c1` (stereo not drawn) [primaquine], for which the IC50 was 9.4 µM with P. falciparum 3D7 and 1.7 µM with P. falciparum W2.
With `N#CCC(=O)N/N=C/c1ccc(Cl)cc1` [JR-06, (E)-N’-(4-chlorobenzylidene)-2-cyanoacetohydrazide], the inhibition at 10 µM in the data set with P. falciparum 3D7-GFP (3D7, 72 h) was 12.4 ± 1%.
Turning to `COc1cc(/C=N/N2C(=O)C(C#N)=CC23c2ccccc2Nc2ccccc23)cc(OC)c1OC` [AMTAC-17], the IC50 was 3.29 ± 0.38 µM in data set [1], 4.09 ± 0.05 µM in data set [2], 3.28 ± 0.49 µM in [3] and above 100 µM in [4] (setting [5]). In the data set with mice, the “estimated Median Lethal Dose (LD50)” value is recorded as “greater than 5000 mg/kg”.
For the compound `N#CCC(=O)N/N=C/c1ccccc1` [JR-09], the inhibition at 10 µM with P. falciparum 3D7-GFP (3D7, 72 h) was 14.8 ± 0.4%.
Still for that read-out and setting: the figure for `COc1ccc(/C=N/NC(=O)CC#N)cc1` [JR-11, (E)-2-cyano-N’-(4-methoxybenzylidene)acetohydrazide] is 13.4 ± 1.4%.
As for `N#CC1=CC2(c3ccccc3Nc3ccccc32)N(/N=C/c2ccccc2)C1=O` [AMTAC-01], the “half-maximal hemolytic concentration (HC50)” value with erythrocytes was above 400 µM. In addition, the IC50 in data set [1] is 1.37 ± 0.46 µM; in data set [2] it was 1.66 ± 0.08 µM; in data set [3] it was 2.11 ± 0.6 µM; in data set [4] (setting [5]) it was above 100 µM.
As to `COc1cc(C)c2c(Oc3cccc(C(F)(F)F)c3)c(OC)cc(NC(C)CCCN)c2n1` (stereo not drawn) [tafenoquine], the IC50 in the data set on P. falciparum 3D7 is 1.7 µM.
As for `N#CCC(=O)N/N=C/c1c[nH]c2ccccc12` [JR-19], in the data set with P. falciparum 3D7-GFP (3D7, 72 h), the inhibition at 10 µM turned out to be 16.8 ± 5%.
For the compound `COc1cc(/C=N/N2C(=O)C(C#N)=CC23c2ccccc2Nc2ccccc23)cc(OC)c1O` [AMTAC-24, (E)-1′-((4-hydroxy-3,5-dimethoxybenzylidene)amino)-5′-oxo-1′,5′-dihydro-10H-spiro[acridine-9,2′-pyrrole]-4′-carbonitrile], in the data set on P. falciparum 3D7-GFP (3D7, 72 h), the inhibition at 10 µM was 66.8 ± 10.8%.
Turning to `COc1ccc(/C=N/N2C(=O)C(C#N)=CC23c2ccccc2Nc2ccccc23)cc1` [AMTAC-02], in the data set on erythrocytes, the “half-maximal hemolytic concentration (HC50)” value was above 400 µM. Also, the IC50 in data set [1] was 3.12 ± 0.34 µM; in [2] it was 4.01 ± 0.17 µM; in data set [3], 3.19 ± 0.49 µM; in data set [4] (setting [5]), above 100 µM.
As for `CC(=O)N(O)CCCCCNC(=O)CCC(=O)N(O)CCCCCNC(=O)CCC(=O)N(O)CCCCCN` [deferoxamine], the IC50 in the data set on P. falciparum 3D7 is 27.6 µM.

Source of the values: PMC12730060, “Design, Synthesis, and Antimalarial Evaluation of New Spiroacridine Derivatives” (Antibiotics, 2025).
